Measured values published in ChEMBL document CHEMBL1124277, “Leukotriene receptor antagonists. 4. Synthesis and leukotriene D4/E4 receptor antagonist activity of 4-(alkyl)acetophenone derivatives” (J Med Chem, 1988).

Legend:
[1] = target: T1, Cysteinyl leukotriene receptor 1 (Cavia porcellus) (UniProt Q2NNR5); experiment: Dissociation constant for leukotriene antagonist (compound) on Cysteinyl leukotriene D4 receptor in guinea pig ileum was determined; type: functional, tissue-based
T1 sequence (whole entry): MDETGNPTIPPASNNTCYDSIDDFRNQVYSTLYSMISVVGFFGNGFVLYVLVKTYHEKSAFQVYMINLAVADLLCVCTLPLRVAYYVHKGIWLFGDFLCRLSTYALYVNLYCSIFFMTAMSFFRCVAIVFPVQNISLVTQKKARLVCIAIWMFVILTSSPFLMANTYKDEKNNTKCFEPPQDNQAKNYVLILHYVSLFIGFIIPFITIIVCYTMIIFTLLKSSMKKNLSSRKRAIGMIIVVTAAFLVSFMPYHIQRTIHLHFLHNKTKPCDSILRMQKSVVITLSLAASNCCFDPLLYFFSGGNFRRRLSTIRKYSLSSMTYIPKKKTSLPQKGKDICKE

[2] = target: T1, Cysteinyl leukotriene receptor 1 (Cavia porcellus); experiment: Dissociation constant for leukotriene antagonist (compound) on LTE4 receptor in guinea pig ileum was determined; type: functional, tissue-based

SMILES | pKB [1] | pKB [2]
CCCc1c(OCCCCc2nnn[nH]2)ccc(C(C)=O)c1O | 6.93 | 7.21
CCCc1c(OCCCc2nnn[nH]2)ccc(C(C)=O)c1O | 5.47 | 5.64
CCCc1c(CCCCc2nnn[nH]2)ccc(C(C)=O)c1O | 6.25 | 6.67
CCCc1c(CCCCCc2nnn[nH]2)ccc(C(C)=O)c1O | 7.08 | 7.5
